How the values were obtained:
[1] = test system: SK-MEL-2; conditions: SK-MEL-2 (Melanoma), 48 h, SRB
[2] = test system: LOX IMVI; test: cells; conditions: Homo sapiens, 48 h
[3] = test system: EKVX; test: cells; conditions: Homo sapiens, 48 h
[4] = test system: SK-MEL-2; test: cells; conditions: Homo sapiens, SK-MEL-2, 48 h
[5] = test system: NCI/ADR-Res; test: NCI DTP 60 cell line screen, SRB; conditions: 48 h
[6] = test system: HOP-62; test: cells; conditions: Homo sapiens, HOP-62, 48 h
[7] = test system: OVCAR-5; test: NCI DTP 60 cell line screen, SRB
[8] = test system: RPMI-8226; conditions: RPMI-8226 (Leukemia), 48 h, SRB
[9] = test system: M14; test: NCI DTP 60 cell line screen, SRB
[10] = test system: Ovarian Cancer subpanel; test: cells
Method in brief: (§1)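 NCI-60 cell lines were exposed for 48 h to compound at 10^−4 to 10^−8 M, with growth measured by SRB staining against untreated controls. GI50, TGI and LC50 were derived per line, and subpanel MG_MID values were averaged with insensitive lines set at the top concentration. Selectivity index is full-panel MG-MID divided by subpanel MG-MID.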

[11] = test system: Leukemia subpanel; test: cells
Method in brief: as §1

[12] = test system: Renal Cancer subpanel; test: cells
Method in brief: as §1

[13] = test system: Prostate Cancer subpanel; test: cells
Method in brief: as §1

[14] = test system: Colon Cancer subpanel; test: cells
Method in brief: as §1

[15] = test system: Breast Cancer subpanel; test: cells
Method in brief: as §1

[16] = test system: CNS Cancer subpanel; test: cells
Method in brief: as §1

[17] = test system: Non-Small Cell Lung Cancer subpanel; test: cells
Method in brief: as §1

[18] = test system: Melanoma subpanel; test: cells
Method in brief: as §1

[19] = Homo sapiens, read-out: MG_MID, GI50
[20] = Homo sapiens, read-out: MG_MID, LC50
[21] = full panel MG_MID / Ovarian Cancer subpanel MG_MID
[22] = full panel MG_MID / Leukemia subpanel MG_MID
[23] = full panel MG_MID / Renal Cancer subpanel MG_MID
[24] = full panel MG_MID / Prostate Cancer subpanel MG_MID
[25] = full panel MG_MID / Colon Cancer subpanel MG_MID
[26] = full panel MG_MID / Breast Cancer subpanel MG_MID
[27] = full panel MG_MID / CNS Cancer subpanel MG_MID
[28] = full panel MG_MID / Non-Small Cell Lung Cancer subpanel MG_MID
[29] = full panel MG_MID / Melanoma subpanel MG_MID

## O=C1/C(=C/C(Cl)=C/c2ccc([N+](=O)[O-])cc2)SC(=S)N1/N=C\C(Cl)=C\c1ccc([N+](=O)[O-])cc1 [Compound 2c, 5-[(Z,2Z)-2-Chloro-3-(4-nitrophenyl)-2-propenylidene]-3-[(Z,2Z)-2-chloro-3-(4-nitrophenyl)-2-propenylideneamino]-2-thioxo-4-thiazolidinone]
[1]
  TGI: 36.4 µM
[2]
  GI50: 13 µM
[2]; read-out: LC50
  CC50: 63.8 µM
[3]
  GI50: 23.7 µM
[3]; read-out: LC50
  CC50: 96.1 µM
[4]
  GI50: 19 µM
[4]; read-out: LC50
  CC50: 69.8 µM
[5]; Homo sapiens, NCI/ADR-RES
  GI50: 6.55 µM
[5]; Homo sapiens, NCI/ADR-RES, read-out: LC50
  CC50: 61.7 µM
[5]; NCI/ADR-Res (Breast Cancer), SRB
  TGI: 20.8 µM
[6]
  GI50: 17.2 µM
[6]; read-out: LC50
  CC50: 91.9 µM
[7]; Homo sapiens, OVCAR-5, 48 h
  GI50: 15.1 µM
[7]; Homo sapiens, OVCAR-5, 48 h, read-out: LC50
  CC50: 86.6 µM
[7]; OVCAR-5 (Ovarian Cancer), 48 h, SRB
  TGI: 36.2 µM
[8]
  TGI: 6.32 µM
[9]; Homo sapiens, M14, 48 h
  GI50: 16.2 µM
[9]; Homo sapiens, M14, 48 h, read-out: LC50
  CC50: 78.5 µM
[9]; M14 (Melanoma), 48 h, SRB
  TGI: 35.7 µM
[10]; [19]
  GI50: 18.2 µM
[10]; [20]
  CC50: 59 µM
[10]; Ovarian Cancer panel mean
  MG_MID, TGI: 36.2 µM
[10]; [21]
  SI (selectivity index), GI50: 0.99
  SI (selectivity index), LC50: 1.38
  SI (selectivity index), TGI: 1.19
[11]; [19]
  GI50: 3.83 µM
[11]; [20]
  CC50: 90 µM
[11]; Leukemia panel mean
  MG_MID, TGI: 18.6 µM
[11]; [22]
  SI (selectivity index), GI50: 4.70
  SI (selectivity index), LC50: 0.91
  SI (selectivity index), TGI: 2.32
[12]; [19]
  GI50: 16.9 µM
[12]; [20]
  CC50: 80.1 µM
[12]; Renal Cancer panel mean
  MG_MID, TGI: 43.3 µM
[12]; [23]
  SI (selectivity index), GI50: 1.07
  SI (selectivity index), LC50: 1.02
  SI (selectivity index), TGI: 1.00
[13]; [19]
  GI50: 14.9 µM
[13]; [24]
  SI (selectivity index), GI50: 1.21
  SI (selectivity index), LC50: 1.09
  SI (selectivity index), TGI: 0.95
[14]; Colon Cancer panel mean
  MG_MID, TGI: 59.7 µM
[14]; [19]
  GI50: 20.7 µM
[14]; [20]
  CC50: 77.8 µM
[14]; [25]
  SI (selectivity index), GI50: 0.87
  SI (selectivity index), LC50: 1.05
  SI (selectivity index), TGI: 0.72
[15]; Breast Cancer panel mean
  MG_MID, TGI: 51.3 µM
[15]; [19]
  GI50: 17.5 µM
[15]; [20]
  CC50: 90.2 µM
[15]; [26]
  SI (selectivity index), GI50: 1.03
  SI (selectivity index), LC50: 0.91
  SI (selectivity index), TGI: 0.84
[16]; CNS Cancer panel mean
  MG_MID, TGI: 52.1 µM
[16]; [19]
  GI50: 23.4 µM
[16]; [20]
  CC50: 88.6 µM
[16]; [27]
  SI (selectivity index), GI50: 0.77
  SI (selectivity index), LC50: 0.92
  SI (selectivity index), TGI: 0.83
[17]; [19]
  GI50: 25.9 µM
[17]; [20]
  CC50: 83 µM
[17]; Non-Small Cell Lung Cancer panel mean
  MG_MID, TGI: 44.8 µM
[17]; [28]
  SI (selectivity index), GI50: 0.69
  SI (selectivity index), LC50: 0.98
  SI (selectivity index), TGI: 0.96
[18]; [19]
  GI50: 17.7 µM
[18]; [20]
  CC50: 74.3 µM
[18]; Melanoma panel mean
  MG_MID, TGI: 38.0 µM
[18]; [29]
  SI (selectivity index), GI50: 1.02
  SI (selectivity index), LC50: 1.10
  SI (selectivity index), TGI: 1.13
